Where a name gives a salt, the structure may show the parent alone.
Assays:
[1] = background statement; cited from earlier work
[2] = Hygroscopicity: increase in weight and appearance after exposure to humidity; type: physicochemical; conditions: exposure to 70±5% relative humidity, at 25° C. for 24 hours
[3] = Hygroscopicity of the solid as stated in the preparation examples; type: physicochemical

Compound | Hygroscopicity (known salts, prior art) [1] | Appearance [2] | Increase in weight (%) [2] [%] | Hygroscopicity of the solid [3]
C[N+](C)(C)C[C@H](O)CC(=O)O.C[N+](C)(C)C[C@H](O)CC(=O)O.O=C([O-])C(O)C(O)C(=O)[O-] [L(−)-carnitine tartrate] | non-hygroscopic |  |  | 
L(−)-carnitine acid fumarate | non-hygroscopic |  |  | 
CC(=O)O[C@H](CC(=O)[O-])C[N+](C)(C)C [Acetyl-L-carnitine inner salt, reference compound] |  | deliquescent | 19 | Very Hygroscopic
Acetyl L-carnitine L-cysteinate Hydrochloride [Example 4] |  | no variation | 0.6 | non-hygroscopic
Acetyl L-carnitine L-aspartate Hydrochloride [Example 8] |  | no variation | 0.7 | non-hygroscopic
CC(=O)O[C@H](CC(=O)O)C[N+](C)(C)C.[Cl-] [Acetyl-L-carnitine chloride, reference compound] |  | clumped mass | 8 | 
Acetyl L-carnitine L-glutaminate Hydrochloride [Example 7] |  | no variation | 0.6 | non-hygroscopic
C[N+](C)(C)C[C@H](O)CC(=O)[O-] [L-carnitine inner salt, reference compound] |  | deliquescent | 23 | 
Acetyl L-carnitine L-arginate Hydrochloride [Example 5] |  | no variation | 0.45 | non-hygroscopic
CC(=O)O[C@H](CC(=O)O)C[N+](C)(C)C.O=C([O-])/C=C/C(=O)O [acetyl L(−)-carnitine acid fumarate] | strongly hygroscopic |  |  | 
Acetyl L-carnitine L-glutamate Hydrochloride [Example 6] |  | no variation | 0.4 | non-hygroscopic
Acetyl L-carnitine L-asparaginate Hydrochloride [Example 9] |  | no variation | 0.3 | non-hygroscopic
Acetyl L-carnitine L-isoleucinate hydrochloride [Example 1] |  | no variation | 0.2 | non-hygroscopic
CCC(=O)O[C@H](CC(=O)O)C[N+](C)(C)C.[Cl-] [Propionyl-L-carnitine chloride, reference compound] |  | deliquescent | 15 | 
Cl.N[C@@H](CS)C(=O)O [L-cysteine Hydrochloride] |  |  |  | Very Hygroscopic

From patent publication US6703042B1, “Salts of L-carnitine and lower alkanoyl L-carnitine” (Sigma-Tau Industries Farmaceutiche Riunite S.p.A., priority 1999, dated 2004)
